Measurements: patent US8507506B2, “Theophylline derivative inhibits osteoporosis” (Kaohsiung Medical University, priority 2011, dated 2013)
Marks after values point to notes of the source that are not given here.

Columns and labels:
Format in all cases: cell-based
[1] = system: MMP-9 mRNA in RAW264.7 cells; experiment: RT-PCR, RANKL-induced mRNA expression of MMP-9; settings: for RANKL-induced mRNA expression level of MMP-9: RAW264.7 cells, 24 hours, CTL 100%, mean ± SEM
From the text: (§1) The culture medium was discarded. […] [table] f) Running • A.

[2] = system: Fra-2 mRNA in RAW264.7 cells; experiment: RT-PCR, RANKL-induced mRNA expression of Fra-2; settings: for RANKL-induced mRNA expression level of Fra-2: RAW264.7 cells, 24 hours, CTL 100%, mean ± SEM
From the text: as §1

[3] = system: c-Src mRNA in RAW264.7 cells; experiment: RT-PCR, RANKL-induced mRNA expression of c-Src; settings: for RANKL-induced mRNA expression level of c-Src: RAW264.7 cells, 24 hours, CTL 100%, mean ± SEM
From the text: as §1

[4] = system: Cathepsin K mRNA in RAW264.7 cells; experiment: RT-PCR, RANKL-induced mRNA expression of Cathepsin K; settings: for RANKL-induced mRNA expression level of Cathepsin K: RAW264.7 cells, 24 hours, CTL 100%, mean ± SEM
From the text: as §1

[5] = system: TRAP activity of RAW264.7 cells induced by RANKL; experiment: TRAP activity assay; settings: 10 ng/ml RANKL for 5 days, different concentrations, FIG. 4
Method: 10^3 cells were plated per well in 96-well plates. […] When the reaction fluid became yellow, 0.1 M, 100 μl/well NaOH was added to terminate the reaction, and OD405 was examined in 37° C. b) 3 μl/well supernatant was examined by Bio-Red DC Protein Assay to detect the protein concentration.

[6] = system: p65 in the cell nucleus of RAW264.7 cells; experiment: Western blot, amount of p65 in nuclei induced by RANKL; settings: KMUP-1 in advance 24 hours, RANKL 30 minutes, FIG. 8(B)
Method: IκBα which originally binds with NF-κB to inhibit its activity in cytoplasm is stimulated by RANKL to be phosphorylized and be hydrolyzed after separating from NF-κB. Then, the free NF-κB transfers into a cell nucleus to play a role as a transcription factor. According to the experimental result, compared with the control group, in the group induced by RANKL for 30 minutes, the IκBα in the cytoplasm is obviously phosphorylized and hydrolyzed. […] According to the result, KMUP-1 can inhibit NF-κB activation induced by RANKL. Nuclear proteins were extracted according to the instructions of NE-PER kit. 2.5×10^6 cells were plated per well in 24-well plates. […] Subsequently, the cells were added by 5.5 μ[…] and shaken for 5 seconds and then put on ice for 1 minute. After that, the cells were shaken again for 5 seconds and centrifuged (10,000 rpm, 4° C., 5 minutes). Cytoplasm and Nuclei could be separated by this process, and the supernatant was cytoplasmic proteins, and the pallet was nuclei. The supernatant was stored in an eppendorf in -80° C. b) Extraction of Nuclear Proteins The nuclear pallet was added by 500 μl PBS and centrifuged (10,000 rpm, 4° C., 5 minutes), and the supernatant was discarded. The pallet could be washed by this process and prevented contamination. […]

[7] = system: MMP-9 enzyme activity of RAW264.7 cells; experiment: Gelatin zymography, enzyme activity of MMP-9 induced by RANKL; settings: 10 μM, RANKL 24 hours, FIG. 21
Method: KMUP-1 influences there major up-stream signal transduction pathways which are related to RANK/RANKL. Western blot is used to estimate the amount of matrix metalloproteinase (MMP)-2 and MMP-9 which are related to the dissolution of osteoclast-like cells, and the enzyme activity of MMP-2 and MMP-9 are estimated via Gelatin Zymography. […] After 24 hours reaction, the reaction fluid was centrifuged (13,000 rpm, 4° C., 20 minutes), and then the supernatant was stored in −80° C. • b) 10% gel preparation. 10 mg gelatin was added by 1 ml ddH2O and then was heated in water bath until the solution was clear. • c) Concentrations of the proteins were examined by Bio-Red DC Protein Assay. After knowing the concentrations, the proteins were diluted to specific concentrations by adding ddH2O. One forth volume of the diluted proteins of sample buffer was added into the diluted proteins. After shaking, the diluted proteins could be added into wells of the gel. Subsequently, 1× running buffer was added with the gel, and then the gel was run at 100 V for 10 minutes until the proteins were driven to the intersection between a loading gel and a running gel. Then, the voltage was swopped to 200 V for 60 minutes. • d) After electrophoresis, the loading gel was discarded, and the left gel was washed by TritonX-100 buffer for 30 minutes in room temperature twice. […]

[8] = 10 ng/ml RANKL, summary of Table 1

Cn1c(=O)c2c(ncn2CCN2CCN(c3ccccc3Cl)CC2)n(C)c1=O [KMUP-1, 7-[2-[4-(2-Chlorophenyl)piperazin-1-yl]ethyl] theophylline]
effect on mRNA expression of MMP-9 induced by RANKL (in words) [1, 8]: inhibits the mRNA expression | RANKL-induced mRNA expression level of MMP-9 ([1]; RANKL 10 ng/ml + KMUP-1 1 μM): 1732.4 ± 168.9% | RANKL-induced mRNA expression level of MMP-9 ([1]; RANKL 10 ng/ml + KMUP-1 2.5 μM): 1619.9 ± 179.8% | RANKL-induced mRNA expression level of MMP-9 ([1]; RANKL 10 ng/ml + KMUP-1 5 μM): 1570.9 ± 159.3% ^b | RANKL-induced mRNA expression level of MMP-9 ([1]; RANKL 10 ng/ml + KMUP-1 7.5 μM): 1439.8 ± 188.8% ^b | RANKL-induced mRNA expression level of MMP-9 ([1]; RANKL 10 ng/ml + KMUP-1 10 μM): 1372.0 ± 175.6% ^b | effect on mRNA expression of Fra-2 induced by RANKL (in words) [2, 8]: not obviously inhibits | RANKL-induced mRNA expression level of Fra-2 ([2]; RANKL 10 ng/ml + KMUP-1 1 μM): 428.3 ± 38.5% | RANKL-induced mRNA expression level of Fra-2 ([2]; RANKL 10 ng/ml + KMUP-1 2.5 μM): 490.5 ± 42.3% | RANKL-induced mRNA expression level of Fra-2 ([2]; RANKL 10 ng/ml + KMUP-1 5 μM): 488.2 ± 57.6% ^ | RANKL-induced mRNA expression level of Fra-2 ([2]; RANKL 10 ng/ml + KMUP-1 7.5 μM): 474.5 ± 52.1% ^ | RANKL-induced mRNA expression level of Fra-2 ([2]; RANKL 10 ng/ml + KMUP-1 10 μM): 496.6 ± 44.1% ^ | effect on mRNA expression of c-Src induced by RANKL (in words) [3, 8]: not obviously inhibits | RANKL-induced mRNA expression level of c-Src ([3]; RANKL 10 ng/ml + KMUP-1 1 μM): 101.4 ± 4.5% | RANKL-induced mRNA expression level of c-Src ([3]; RANKL 10 ng/ml + KMUP-1 2.5 μM): 103.9 ± 2.7% | RANKL-induced mRNA expression level of c-Src ([3]; RANKL 10 ng/ml + KMUP-1 5 μM): 95.8 ± 2.8% ^ | RANKL-induced mRNA expression level of c-Src ([3]; RANKL 10 ng/ml + KMUP-1 7.5 μM): 91.5 ± 4.5% ^ | RANKL-induced mRNA expression level of c-Src ([3]; RANKL 10 ng/ml + KMUP-1 10 μM): 98.6 ± 6.2% ^ | effect on mRNA expression of Cathepsin K induced by RANKL (in words) [4, 8]: not obviously inhibits | RANKL-induced mRNA expression level of Cathepsin K ([4]; RANKL 10 ng/ml + KMUP-1 1 μM): 304 ± 7.8% | RANKL-induced mRNA expression level of Cathepsin K ([4]; RANKL 10 ng/ml + KMUP-1 2.5 μM): 305 ± 5.9% | RANKL-induced mRNA expression level of Cathepsin K ([4]; RANKL 10 ng/ml + KMUP-1 5 μM): 312 ± 6.2%^ | RANKL-induced mRNA expression level of Cathepsin K ([4]; RANKL 10 ng/ml + KMUP-1 7.5 μM): 321.5 ± 10.2% ^ | RANKL-induced mRNA expression level of Cathepsin K ([4]; RANKL 10 ng/ml + KMUP-1 10 μM): 245 ± 8.5% ^b | TRAP activity induced by RANKL [5]: can be inhibited, and the inhibiting effect is related to dose | amount of p65 in the cell nucleus induced by RANKL [6]: has the inhibiting effect on that p65 enters into a cell nucleus | enzyme activity of MMP-9 induced by RANKL [7]: can reduce the enzyme activity of MMP-2 and MMP-9
